From PMC5187537, “Antioxidant Activity of Oat Proteins Derived Peptides in Stressed Hepatic HepG2 Cells” (Antioxidants, 2016)
Several values for one entry are separate records, joined by “and”; a condition that tells them apart may be missing. Equal values may be shown once. Read-outs that look alike come from different tables or passages of the source.

Experiments:
RAW 264.7 cells = details: peptides from fish; cited from earlier work
Text: The physiological role of GSH has long been of interest, particularly its antioxidant function due to the unique redox chemistry of its cysteinyl thiol residue. The oxidation of sulfhydryl groups on amino acids by ROS can lead to the formation of protein disulfide bonds, which can be reduced by GSH into individual sulfhydryl groups. GSH is also a substrate used by GPx in the reduction of peroxides and its concentration often reflects oxidative status of cells.

[1] = tested on: glutathione peroxidase (GPx); assay: Glutathione peroxidase activity of lysates of AAPH-stressed cells; type: cell-based, Human; details: for Effect on GPx activity of AAPH-stressed cells: then AAPH 24 h
Procedure: (§1) Cells were seeded at 1 × 10^6 cells/plate in 60 mm tissue culture plates and allowed to grow for 24 h. In each plate, cells were washed twice with 4 mL of PBS (pH 7.2), and treated with 4 mL peptide samples (P1, P2, P6, P7) dissolved in culture media at 50 or 100 µM for 24 h. After removal of peptide solutions, cells were washed twice with 4 mL of PBS/plate and treated with 4 mL of […] dissolved in culture media and allowed to incubate for 24 h. Cells in each culture plate were harvested by incubation (5 min) with 0.5 mL of 0.25% trypsin, addition of 1 mL of culture media and centrifugation at 1000× g for 5 min. Cell pellets were washed with ice cold PBS (500 µL each) until no pink color was observed, re-suspended in ice cold PBS (300 µL) for the superoxide dismutase (SOD) assay, 500 µL for glutathione peroxidase (GPx) and catalase (CAT) assays. For total glutathione assay, 300 µL of 5% ice cold sulfosalicylic acid bubbled with 100% nitrogen was used for cell lysis. Cells were lysed by sonication on ice for 1 min using a probe-type sonicator (Vibra-Cell, Sonics and Materials Inc., Newtown, CT, USA) pulsing at 15 s on and 10 s off cycles. Following centrifugation of cell lysate at 13,000× g (4 °C), pellets containing cell debris were discarded, while supernatants were used for determination of glutathione content. Protein contents were determined using a modified Lowry assay.
The activity of GPx was determined as previously described in a 96-well plate. Briefly, in each well, 187.5 µL of potassium phosphate buffer was mixed with 12.5 µL NADPH (4 mM) solution and 25 µL of cell lysates or buffer (blank), and incubated at 30 °C for 5 min. Then, 100 µL of 0.15% cumene hydroperoxide was added in each well to begin the reaction. The rate of disappearance of NADPH was followed at 340 nm for 5 min. The activity was expressed as Units of GPx activity/mg protein.

catalase (CAT) = assay: Catalase activity of lysates of AAPH-stressed cells; type: cell-based, Human
Procedure: as §1, with “assay. To measure the catalase activity, 1790 µL potassium phosphate buffer (50 mM, pH 7.0) was mixed with 200 µL cell lysate in a UV cuvette. Ten µL of H2O2 (30%) was added, and removal of H2O2 by catalase was followed at 240 nm using a Cary 50 Bio UV-Vis spectrophotometer with 18-cell changer (Varian Inc., Mississauga, ON, Canada). The activity was expressed as a percentage of control.” for “assay.”

[2] = tested on: glutathione (GSH) of HepG2 cells; assay: Cellular glutathione, enzymatic recycling method; type: cell-based, Human; details: treatment with AAPH alone, 24 h
Procedure: as §1
The assay was based on the enzymatic recycling method adjusted for 96-well plates. All solutions were prepared in sodium phosphate buffer (125 mM, pH 7.5) that contained 6.3 mM EDTA (ethylenediaminetetraacetic acid). In summary, 60 µL of 0.35 mM NADPH and 10 µL of 6 mM DTNB were added to wells, this was followed by the addition of 20 µL cell lysate or glutathione (GSH) standard. To initiate the reaction, 10 µL of glutathione reductase (5 IU/mL) was added and the rate of reaction between GSH from cell lysate and DTNB was measured at 412 nm. Total glutathione of cell lysates was calculated based on a standard curve of glutathione.

HepG2 cells = type: cell-based, Human; details: then 20 mM AAPH 24 h, MTT; for Cytoprotective effect against AAPH-induced damage: 50 or 100 µM peptide 24 h; for Increase of viability of cells compared to PC: 100 µM peptide 24 h, p < 0.05
Procedure: Human hepatocellular carcinoma (HepG2) cells were purchased from the American Type Culture Collection (ATCC; Manassas, VA, USA). They were cultured at 37 °C in a humidified incubator with 5% CO2 and 95% air. Dulbecco’s Minimal Essential Media (DMEM) supplemented with 10% (v/v) Fetal Bovine Serum was used for the maintenance of cells. […] The MTT (3-(4,5-dimethylthiazol-2-yl)-2,5-diphenyltetrazolium bromide) assay, as described in an earlier research, was used for cytotoxicity and cytoprotective tests. […] Following another 24 h incubation, cells were washed twice with 200 µL of PBS. Ten µL of MTT solution (5 mg/mL in PBS) and 100 µL of media were added to each well. After 1 h, MTT solution was removed, and 50 µL DMSO were added. Absorbances were recorded at 570 nm with 630 nm background subtraction using a BioTek Epoch™ microplate reader (Fisher Scientific, Nepean, ON, Canada). Untreated cells were used as negative control (NC) and cells treated with only AAPH were used as positive control (PC).

[3] = Oxygen radical absorbance capacity (ORAC) assay; details: fluorescein 0.08 µM, AAPH 150 mM, 37 °C, 50 min, potassium phosphate buffer pH 7.4 75 mM, peptides 100 and 200 µM; triplicate, mean ± STDEV
Procedure: The ORAC assay was performed as previously described. The decay of fluorescein (0.08 µM) by AAPH (150 mM) at 37 °C was recorded at 1 min intervals over 50 min using a BioTek™ FL × 800™ fluorescent microplate reader (Fisher Scientific, Nepean, ON, Canada) with fluorescence filters (excitation 485/20 nm, emission 528/20 nm). Potassium phosphate buffer (pH 7.4, 75 mM) was used to dissolve peptides (100 and 200 µM) and Trolox standards (6.25–100 µM). Data analysis was done with Gen5^TM software (Fisher Scientific, Nepean, ON, Canada), and ORAC values were expressed as µM Trolox Equivalent (TE)/µM peptide using the standard curve.

[4] = tested on: superoxide dismutase (SOD); assay: Superoxide dismutase activity of lysates of AAPH-stressed cells; type: cell-based, Human; details: 50 µM peptide 24 h, then AAPH 24 h
Procedure: as §1
The SOD activity was measured based on the rate of reduction of nitroblue tetrazolium (2.24 mM) to formazan by xanthine oxidase (13.2 U/mL) at 560 nm. Eight concentrations of each cell extract ([…] protein/mL) or SOD standard (2–500 ng/mL) were used to obtain inhibition curves. Specifically, 20 µL of cell sample, or buffer (blank) was mixed with 160 µL of assay solution, and 20 µL of xanthine oxidase was added to initiate the reaction. The reduction of nitroblue tetrazolium to blue formazan by O2^−• generated in situ was followed at 560 nm. SOD activities were calculated and expressed as units per milligram of protein.

[5] = cited from earlier work
Procedure: Recent studies have, however, shown that, in addition to fibers and polyphenols, hydrolyzed proteins and peptides also contribute to the health promoting effect of cereals. […] Protein hydrolysates from oats, wheat, and rice have all shown antioxidant activities against common reactive oxygen species (ROS) in various systems. The peroxyl radical scavenging activity of oat proteins in the ... || Peroxyl radical (ROO^•) scavenging activities of P1–P7 were evaluated using the ORAC assay. […] ROO^• scavenging activities can be affected by sequences, molecular weights and the presence of amino acids that can form stable radical intermediates after donation of electrons or protons. The highest activities of P2 and P5 can be explained ...

[6] = 50 µM peptide 24 h, then AAPH 24 h
[7] = peptide from beta-lactoglobulin

Compound: VCSV [literature peptide from fish]
- Increase of ROS due to AAPH (RAW 264.7 cells): attenuated

Compound: CC(C)(N=NC(C)(C)C(=N)N)C(=N)N.Cl.Cl [AAPH, 2,2′-azobis(2-methylpropionamidine) dihydrochloride, reference compound]
- Decrease of GPx activity relative to NC ([1]; HepG2 cells incubated with AAPH alone, 24 h): 18.2%
- Increase of CAT activity (catalase (CAT); treatment with AAPH alone, 24 h): ~2 fold
- Decrease of GSH [2]: 58.1%

Compound: GQTV [P3, oat protein derived peptide GQTV, synthesized by GenScript]
- Cytoprotective effect against AAPH-induced damage (HepG2 cells): no effect on oxidative damages

Compound: GQTVFNDRLRQGQLL [P4, oat protein derived peptide …, synthesized by GenScript]
- ORAC value (peroxyl radical scavenging activity) [3]: 0.14–0.61 µM TE/µM
- Cytoprotective effect against AAPH-induced damage (HepG2 cells): no effect on oxidative damages

Compound: FNDRLRQGQLL [P1, oat protein derived peptide …, synthesized by GenScript]
- ORAC value (peroxyl radical scavenging activity) [3]: 0.14–0.61 µM TE/µM
- Increase of viability of cells compared to PC (HepG2 cells): 15.5%
- Cytoprotective effect against AAPH-induced damage (HepG2 cells): cytoprotective
- Effect on GPx activity of AAPH-stressed cells ([1]; 50 µM peptide 24 h): completely restored the activity
- Effect on SOD activity compared to AAPH treated cells only (PC) [4]: did not affect the activity
- Effect on CAT activity compared to PC cells (catalase (CAT); [6]): no change was observed
- Effect on CAT activity (catalase (CAT); 100 µM peptide 24 h, then AAPH 24 h): not affected by the peptide concentration

Compound: MHIRL [literature peptide from beta-lactoglobulin]
- ORAC activity [5, 7]: 0.306 µM TE/µM

Compound: YAEERYPIL [literature peptide from egg white]
- ORAC activity ([5]; peptide from egg white): 3.5 µM TE/µM

Compound: WYSLAMAASDI [literature peptide from beta-lactoglobulin]
- ORAC activity [5, 7]: 2.6 µM/µM

Compound: DVNNNANQLEPR [P7, oat protein derived peptide …, synthesized by GenScript]
- ORAC value (peroxyl radical scavenging activity) [3]: 0.14–0.61 µM TE/µM and 0.14 ± 0.04 µM TE/µM
- Increase of viability of cells compared to PC (HepG2 cells): 8.3%
- Cytoprotective effect against AAPH-induced damage (HepG2 cells): cytoprotective
- Effect on GPx activity of AAPH-stressed cells ([1]; 50 µM peptide 24 h): had no effect
- Effect on GPx activity of AAPH-stressed cells ([1]; 100 µM peptide 24 h): only suppressed the damage caused by AAPH
- Effect on SOD activity compared to AAPH treated cells only (PC) [4]: did not affect the activity
- Further increase of CAT activity compared to PC cells (catalase (CAT); [6]): 90%

Compound: CAAP [literature peptide from fish]
- Increase of ROS due to AAPH (RAW 264.7 cells): attenuated
